Experimental findings from US20030069295A1, “Use of histamine H3 receptor inverse agonists for the control of appetite and treatment of obesity” (Gliatech, Inc., priority 2001, published 2003) are described below.

Like-named read-outs stand apart in the source and are kept apart here.

For one experiment, the target named is T1, H3 receptor (Rattus norvegicus, UniProt Q9QYN8).
T1 construct: ½-maximal H3 receptor occupancy in the brain following intraperitoneal administration; from tissue; host or cells: brain of dosed animals
T1 sequence (Q9QYN8 whole entry): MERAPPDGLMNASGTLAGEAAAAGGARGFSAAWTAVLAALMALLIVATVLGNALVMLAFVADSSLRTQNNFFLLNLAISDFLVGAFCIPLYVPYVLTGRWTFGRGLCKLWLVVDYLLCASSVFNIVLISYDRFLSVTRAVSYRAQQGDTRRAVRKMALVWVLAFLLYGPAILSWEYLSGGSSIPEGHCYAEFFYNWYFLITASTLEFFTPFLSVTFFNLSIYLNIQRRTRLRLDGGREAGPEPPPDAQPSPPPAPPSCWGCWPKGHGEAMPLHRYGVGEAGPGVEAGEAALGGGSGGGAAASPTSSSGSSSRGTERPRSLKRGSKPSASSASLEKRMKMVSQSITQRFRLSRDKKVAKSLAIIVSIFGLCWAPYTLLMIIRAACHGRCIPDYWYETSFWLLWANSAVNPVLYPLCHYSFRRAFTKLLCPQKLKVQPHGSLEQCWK
Nature of the experiment: Ex vivo binding: H3 receptor occupancy in the brain following intraperitoneal administration. The source says:
The percent reduction in food intake by rats two hours after intraperitoneal administration of each compound is shown in Table 5. […] In Table 5, * indicates a significant decrease in food intake compared to the vehicle-treated rats (t-test, p<0.05). The ex vivo binding values in Table 5 represent the drug dose required to obtain ½-maximal H3 receptor occupancy in the brain following intraperitoneal administration. The dose values shown in Table 5 represent the dosage of drug utilized during the food intake studies. In all cases, the tested dose exceeded the amount needed to obtain ½-maximal H3 receptor occupancy in the brain.

The next experiment has as its target T2, Histamine H3 receptor (Rattus norvegicus, UniProt Q9QYN8).
T2 construct: The cerebral cortical tissues were harvested and frozen on dry ice; from tissue; host or cells: cerebral cortex membranes of male Sprague-Dawley rats
Nature of the experiment: Histamine H3 receptor binding analysis, [3H]-Nα-methylhistamine competition in rat cerebral cortical membranes, with and without GTPγS. The conditions noted are these: for Ki Ratio (−/+): Ki without GTPγS / Ki with GTPγS; for remaining activity at 0.0003 µM: read-out: percent of [3H]-Nα-methylhistamine bound (mean), 0.3 nM of compound; for remaining activity at 0.001 µM: read-out: percent of [3H]-Nα-methylhistamine bound (mean), 1 nM of compound; for remaining activity at 0.003 µM: read-out: percent of [3H]-Nα-methylhistamine bound (mean), 3 nM of compound; for remaining activity at 0.01 µM: read-out: percent of [3H]-Nα-methylhistamine bound (mean), 10 nM of compound; for remaining activity at 0.03 µM: read-out: percent of [3H]-Nα-methylhistamine bound (mean), 30 nM of compound; for remaining activity at 0.1 µM: read-out: percent of [3H]-Nα-methylhistamine bound (mean), 100 nM of compound; for remaining activity at 1 µM: read-out: percent of [3H]-Nα-methylhistamine bound (mean), 1000 nM of compound; for remaining activity at 10 µM: read-out: percent of [3H]-Nα-methylhistamine bound (mean), 10000 nM of compound.

Where [1] appears, read: GTPγS-treated receptor preparation (G-protein uncoupled), read-out: Ki (+) GTPγS.
[2] abbreviates: untreated receptor preparation (mixture of coupled and uncoupled H3 receptors), read-out: Ki (−) GTPγS.

T2 sequence (Q9QYN8 whole entry): as above
Description for Histamine H3 receptor: A histamine H3 receptor binding analysis to determine the affinity of various imidazole derivatives for G-protein uncoupled receptors was performed as follows. […] Animals were acclimated to laboratory conditions for a minimum of one week prior to tissue harvesting.
Animals were anesthetized by NO2 inhalation and euthanized by rapid decapitation. The cerebral cortical tissues were harvested and frozen on dry ice. Rat corticies were mechanically homogenized using a Tissue Tearer in 25 mM Tris buffer (pH 7.5 at 4° C.) containing: EDTA (10 mM), phenylmethylsulfonyl fluoride (0.1 mM), chymostatin and leupeptin (each 0.2 mg/50 mL). The homogenate was centrifuged in a Sorvall centrifuge at 40,000×g for 30 minutes. The pellet was re-suspended in 25 ml water and lysed on ice for 30 minutes. The homogenate was then re-centrifuged and the membrane lysis was repeated. The membranes were centrifuged and the final membrane pellets were resuspended in 14 volumes of water to yield approximately 200 μg protein/100 μl final concentration. The suspension was stored frozen at −80° C. prior to use. Protein concentrations were determined using the Coomassie Plus Protein Assay (available from Pierce of Rockford, Ill.).
GTPγS causes dissociation of G-protein from receptors. Data are shown as percent of [^3H]-N^α-methylhistamine bound (mean) for each table.

As to `O=C(N[C@@H]1C[C@H]1c1c[nH]cn1)OCCC1CCCCC1` [Compound 1, 4-((1R,2R)-trans-2-(O-(2-cyclohexylethyl)carboxamido)cyclopropyl)imidazole], the “Ex Vivo Binding (drug dose required to obtain ½-maximal H3 receptor occupancy in the brain)” value (“Ex Vivo Binding” for short) at H3 receptor is listed as 3.1 ± 1.3 mg/kg. For the same compound, the inhibitory constant (Ki) on Histamine H3 receptor (setting [1]) was 7.2 nM. The “Ki Ratio (−/+)” value at Histamine H3 receptor was determined as 4.1. Besides, at Histamine H3 receptor (Tris), the remaining activity at 0.0003 µM worked out at 108%, the remaining activity at 0.001 µM was 95.7%, the remaining activity at 0.003 µM is 102% and the remaining activity at 0.01 µM is 102%. Moreover, at Histamine H3 receptor (Tris), the remaining activity at 0.03 µM is 88.4%, the remaining activity at 0.1 µM was 67.9%, the remaining activity at 1 µM is 12.6% and the remaining activity at 10 µM was -1.6%. For the same compound, at Histamine H3 receptor (Tris-GTPγS), the remaining activity at 0.0003 µM turned out to be 103%, the remaining activity at 0.001 µM came out at 98.3%, the remaining activity at 0.003 µM worked out at 93.3% and the remaining activity at 0.01 µM was determined as 76.4%. Also, on Histamine H3 receptor (Tris-GTPγS), the remaining activity at 0.03 µM was determined as 42.6%, the remaining activity at 0.1 µM worked out at 23.8%, the remaining activity at 1 µM is 4% and the remaining activity at 10 µM is 1.3%. The “binding to GTPγS-treated cortical membrane preparation compared with non-treated preparation” value on Histamine H3 receptor (result in words) is listed as “higher apparent affinity”. For the same compound, on Histamine H3 receptor (setting [2]), the Ki amounted to 29.3 nM.
Regarding `N[C@H](/C=C\CCc1c[nH]cn1)CC1CCCCC1` [Compound 4, 4-(((5S)(3Z)-5-amino-6-cyclohexyl)hex-3-en-1-yl)imidazole], the “Ex Vivo Binding” value at H3 receptor is given as “˜15 mg/kg”. For the same compound, the Ki on Histamine H3 receptor (setting [1]) is 1.9 nM; at Histamine H3 receptor (setting [2]), 11.3 nM. In addition, the “Ki Ratio (−/+)” value on Histamine H3 receptor is reported as 6.0.
As to `O=C(CCCCC1CCCCC1)N1CCC(c2c[nH]cn2)CC1` [Compound 5, 4-(N-(5-cyclohexylpentan-1-one-1-yl)piperidin-4-yl)imidazole], at H3 receptor, the “Ex Vivo Binding” value is 8.0 ± 1.3 mg/kg.
As to `Fc1ccc(C(OCCCc2c[nH]cn2)c2ccc(F)cc2)cc1` [Compound 8, 3-(1H-imidazol-4-yl)propyl-di(p-fluorophenyl)-methyl ether], the “Ex Vivo Binding” value on H3 receptor came to 5.6 ± 0.12 mg/kg. In addition, the inhibitory constant (Ki) came to 7.8 nM on Histamine H3 receptor (setting [1]) and 18.2 nM on Histamine H3 receptor (setting [2]). Also, on Histamine H3 receptor, the “Ki Ratio (−/+)” value is given as 2.3.
